The format of data set [1] is in vivo, human. The settings on record: for Cmax: geometric mean (geometric %CV); for half-life: half‐life after T max.
The target in another data set is T1, recombinant NNMT protein (Homo sapiens, UniProt P40261).
T1 sequence (P40261 1-264): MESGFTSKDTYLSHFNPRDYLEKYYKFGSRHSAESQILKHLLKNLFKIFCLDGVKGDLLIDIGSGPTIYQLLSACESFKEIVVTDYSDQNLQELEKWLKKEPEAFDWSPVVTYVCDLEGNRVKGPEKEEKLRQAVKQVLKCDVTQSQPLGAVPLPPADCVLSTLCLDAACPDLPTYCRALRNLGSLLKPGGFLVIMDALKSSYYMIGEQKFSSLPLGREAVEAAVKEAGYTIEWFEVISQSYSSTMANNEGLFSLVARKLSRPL
Kind of data set: NNMT activity assay. The format is biochemical. Particulars: nicotinamide 100 μM, 37°C, 6 min.

In data set [2] the test system is OCT2 and MATE1/2-K. Kind of data set: clinical. Particulars: male, human, in vivo, geometric mean; for AUC(0-t): AUC0–8hour; for CL renal: CLr (0–8 h).
For a further data set, the target named is T2, OCT2 (Homo sapiens, UniProt O15244).
T2 sequence (O15244 1-555): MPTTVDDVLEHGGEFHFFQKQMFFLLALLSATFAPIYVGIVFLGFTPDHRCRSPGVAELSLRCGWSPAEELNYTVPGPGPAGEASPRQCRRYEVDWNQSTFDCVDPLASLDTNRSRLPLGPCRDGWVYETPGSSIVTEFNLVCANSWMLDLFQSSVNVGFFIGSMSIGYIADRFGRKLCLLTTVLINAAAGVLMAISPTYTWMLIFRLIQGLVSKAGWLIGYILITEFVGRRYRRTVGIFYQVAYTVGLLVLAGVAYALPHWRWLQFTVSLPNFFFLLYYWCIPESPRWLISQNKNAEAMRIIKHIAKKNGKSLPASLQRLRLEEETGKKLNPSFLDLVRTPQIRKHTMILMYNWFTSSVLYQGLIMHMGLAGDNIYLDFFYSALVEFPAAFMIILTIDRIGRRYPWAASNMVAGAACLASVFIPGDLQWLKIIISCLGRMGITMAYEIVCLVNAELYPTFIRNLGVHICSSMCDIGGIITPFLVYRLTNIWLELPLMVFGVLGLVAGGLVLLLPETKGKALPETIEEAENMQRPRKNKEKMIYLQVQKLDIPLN
The data set is described as follows: Inhibition of OCT2-mediated metformin uptake in OCT2-HEK293 cells. The format is in vitro ADME. Particulars: HEK293 cells stably expressing OCT2, pH 7.4, probe metformin (10 μM).

The next data set deals with T3, MATE1 (Homo sapiens, UniProt Q96FL8).
T3 sequence (Q96FL8 1-570): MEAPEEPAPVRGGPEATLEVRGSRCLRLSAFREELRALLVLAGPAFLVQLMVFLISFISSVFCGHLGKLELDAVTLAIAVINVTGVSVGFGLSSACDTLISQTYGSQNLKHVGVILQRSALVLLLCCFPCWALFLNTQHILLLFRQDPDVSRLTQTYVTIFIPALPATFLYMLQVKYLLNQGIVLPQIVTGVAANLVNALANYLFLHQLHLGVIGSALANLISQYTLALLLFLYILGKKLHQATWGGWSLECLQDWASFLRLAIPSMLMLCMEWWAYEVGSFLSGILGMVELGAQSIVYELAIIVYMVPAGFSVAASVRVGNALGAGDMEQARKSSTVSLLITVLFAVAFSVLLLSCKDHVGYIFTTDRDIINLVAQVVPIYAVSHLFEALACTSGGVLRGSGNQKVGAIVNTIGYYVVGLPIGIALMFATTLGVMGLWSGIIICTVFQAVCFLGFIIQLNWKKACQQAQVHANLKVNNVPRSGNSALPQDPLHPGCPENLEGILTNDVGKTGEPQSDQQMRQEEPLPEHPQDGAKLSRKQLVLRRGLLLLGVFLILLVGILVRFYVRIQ
Kind of data set: Inhibition of MATE1-mediated metformin uptake in MATE1-HEK293 cells. The format is in vitro ADME. Particulars: K i for MATE1, metformin (10 μM) uptake, 37°C, MATE1-HEK; average of experiments.

Another data set addresses MATE2‐K (Homo sapiens, UniProt Q86VL8). Kind of data set: Inhibition of MATE2‐K-mediated metformin uptake in MATE2‐K-HEK293 cells. The format is in vitro ADME.
For data set [3] the following is noted: cited from earlier work.
Data set [4] concerns OCT2 and MATE1/2‐K. The settings on record: for fe of metformin (fraction recovered in the urine): geometric mean (geometric %CV).
The test system of data set [5] is OCT2 and MATE1/2-K. Kind of data set: clinical. The settings on record: male, human, in vivo; for AUC(0-t): AUC0–24hour, geometric mean; for Cmax: C max of metformin; for Cmax / CL renal: geometric mean (geometric %CV); for CL renal: CLr of metformin (0–24 hour).
Data set [6] relates to OCT2 and MATE1/2‐K. Particulars: at fifth dose of dolutegravir.
The test system of another data set is OAT1/3. The format is in vivo, human.
The mark [7] stands for this setting: dolutegravir (fifth) + metformin.
Where [8] appears, read: dolutegravir (first) + metformin.
The mark [9] stands for this setting: male, human, plasma, oral, 50 mg.
The mark [10] stands for this setting: 50 mg, with dolutegravir 50 mg BID, fifth dose.
The mark [11] stands for this setting: 50 mg, with dolutegravir 50 mg BID, first dose.

Like-named read-outs stand apart in the source and are kept apart here. Marks after values point to notes of the source that are not given here.

The values that follow come from article PMC11739737 (Clinical Pharmacology and Therapeutics, 2024).

MATE2‐K, sequence (Q86VL8 1-566 isoform Q86VL8-3): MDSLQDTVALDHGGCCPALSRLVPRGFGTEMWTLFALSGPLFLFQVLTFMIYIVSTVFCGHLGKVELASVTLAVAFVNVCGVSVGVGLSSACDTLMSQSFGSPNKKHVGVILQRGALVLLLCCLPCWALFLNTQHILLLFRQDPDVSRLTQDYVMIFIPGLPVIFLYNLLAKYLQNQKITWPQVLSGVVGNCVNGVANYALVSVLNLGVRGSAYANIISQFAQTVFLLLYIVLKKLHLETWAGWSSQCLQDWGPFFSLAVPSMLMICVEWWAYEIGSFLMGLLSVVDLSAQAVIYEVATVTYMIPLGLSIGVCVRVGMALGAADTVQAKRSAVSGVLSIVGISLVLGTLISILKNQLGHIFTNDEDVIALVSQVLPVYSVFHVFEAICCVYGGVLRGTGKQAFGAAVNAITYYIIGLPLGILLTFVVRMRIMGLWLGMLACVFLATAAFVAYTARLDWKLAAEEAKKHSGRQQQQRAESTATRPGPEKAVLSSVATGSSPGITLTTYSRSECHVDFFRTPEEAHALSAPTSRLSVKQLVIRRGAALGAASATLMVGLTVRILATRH

For `CN/C(=N/CCSCc1nc[nH]c1C)NC#N` [Cimetidine], the Cmax (as a rule, the peak of the concentration-time curve) in [1] (male, human, plasma, oral, 800 mg, maximum plasma concentration (C max), cimetidine 800 mg) is 25.7 µM. Moreover, the adverse event entry in [1] (one subject, cimetidine 800 mg (Period 2), judged to have no causal relationship with the study drug) is “Vomiting”. Besides, the “inhibition of the activity of NNMT” value at recombinant NNMT protein (cimetidine 20 μM) is “eliminated the possibility”.

Regarding `CN1CC(=O)NC1=N` [Creatinine, creatinine], the area under the curve AUC(0-t) – broadly, the area under the concentration-time curve up to a stated or last time point – in the data set on OCT2 and MATE1/2-K [2] (baseline) was found to be 641 µM·h; in the data set on OCT2 and MATE1/2-K [2] (cimetidine 400 mg + metformin), 669 µM·h; with OCT2 and MATE1/2-K [2] (cimetidine 800 mg + metformin) it was 689 µM·h; in the data set on OCT2 and MATE1/2-K [2] (control (metformin alone)) it was 600 µM·h; with OCT2 and MATE1/2-K [2] (setting [7]) it was 691 µM·h; in the data set on OCT2 and MATE1/2-K [2] (setting [8]) it was 712 µM·h.

For `C[C@@H]1CCO[C@H]2Cn3cc(C(=O)NCc4ccc(F)cc4F)c(=O)c(O)c3C(=O)N12` [Dolutegravir], the inhibition constant Ki (as a rule, a dissociation constant, usually derived from enzyme kinetics or from competition with a known ligand) at 2 min on OCT2 came out at 290 ± 40 nM. Further, the Ki on MATE1 amounted to 830 nM; on MATE2‐K, 2970 ± 400 nM. Also, in data set [1] (setting [9]), the AUC (commonly concentration integrated over time) turned out to be 209 µM·h. Moreover, the area under the curve AUC(0-inf) (in general, the area under the concentration-time curve extrapolated to infinity) in data set [1] (setting [9]) came out at 141 µM·h. Besides, the highest concentration (Cmax) in data set [1] (male, human, plasma, oral, 50 mg, C max up to 12 hours after metformin administration, dolutegravir 50 mg BID, fifth dose) is 21.7 µM; in data set [1] (male, human, plasma, oral, 50 mg, C max up to 12 hours after metformin administration, dolutegravir 50 mg BID, first dose), 7.07 µM. Further, the half-life (usually the time needed for the level to fall by half in the phase considered) in data set [1] (male, human, plasma, oral, 50 mg, dolutegravir 50 mg BID, fifth dose) is 16.6 ± 1.7 h; in [1] (male, human, plasma, oral, 50 mg, dolutegravir 50 mg BID, first dose), 13 ± 1.1 h. The “inhibition of the activity of NNMT” value at recombinant NNMT protein (dolutegravir 30 μM) is on record as “eliminated the possibility”. The “elimination half‐life” value in data set [3] was 13 to 14 h.

Consider `CN(C)C(=N)N=C(N)N` [Metformin], for which the “decrease of CLr of metformin” value in the data set on OCT2 and MATE1/2‐K [4] (cimetidine 400 mg) was determined as 15.5%; with OCT2 and MATE1/2‐K [4] (cimetidine 800 mg), 42.5%; in the data set on OCT2 and MATE1/2‐K [4] (dolutegravir fifth dose), 56.9%; in the data set on OCT2 and MATE1/2‐K [4] (dolutegravir first dose), 26.8%. Further, the “increase of AUC of metformin” value is given as 1.7 times in the data set with OCT2 and MATE1/2‐K [4] (cimetidine 400 mg); 2.2 times in the data set with OCT2 and MATE1/2‐K [4] (cimetidine 800 mg); 3.0 times in the data set on OCT2 and MATE1/2‐K [4] (fifth dose of dolutegravir); 1.8 times in the data set with OCT2 and MATE1/2‐K [4] (first dose of dolutegravir). Moreover, the “increase of C max of metformin” value in the data set on OCT2 and MATE1/2‐K [4] (co‐administration of cimetidine 400 mg) worked out at 2.1 times; with OCT2 and MATE1/2‐K [4] (co‐administration of cimetidine 800 mg) it was 2.7 times; in the data set with OCT2 and MATE1/2‐K [4] (fifth dose of dolutegravir), 2.3 times; in the data set with OCT2 and MATE1/2‐K [4] (first dose of dolutegravir), 1.6 times. For the same compound, the “fe of metformin (fraction recovered in the urine)” value is reported as 0.649 (13.7) in the data set on OCT2 and MATE1/2‐K [4] (metformin 500 mg alone (control)); 0.940 (13.9)*** with OCT2 and MATE1/2‐K [4] (with cimetidine 400 mg); 0.826 (22.1)** in the data set with OCT2 and MATE1/2‐K [4] (with cimetidine 800 mg); 0.844 (20.7)** in the data set on OCT2 and MATE1/2‐K [4] (with dolutegravir 50 mg BID, fifth dose); 0.828 (20.6)** in the data set with OCT2 and MATE1/2‐K [4] (with dolutegravir 50 mg BID, first dose). The AUC(0-t) in the data set with OCT2 and MATE1/2-K [5] (setting [10]) was found to be 213 µM·h; in the data set on OCT2 and MATE1/2-K [5] (setting [11]), 123 µM·h; in the data set with OCT2 and MATE1/2-K [5] (800 mg, with cimetidine 800 mg) it was 154 µM·h. For the same compound, the highest concentration (Cmax) in the data set with OCT2 and MATE1/2-K [5] (setting [10]) was 23.8 µM; with OCT2 and MATE1/2-K [5] (setting [11]), 17 µM; in the data set with OCT2 and MATE1/2-K [5] (800 mg, with cimetidine 800 mg), 28 µM. Moreover, the CL renal was 199 mL/min in the data set with OCT2 and MATE1/2-K [5] (setting [10]); 339 mL/min in the data set on OCT2 and MATE1/2-K [5] (setting [11]); 269 mL/min in the data set with OCT2 and MATE1/2-K [5] (800 mg, with cimetidine 800 mg).

As to `Cn1cnc2c(ncn2[C@@H]2O[C@H](CO)[C@@H](O)[C@H]2O)c1=N` [m^1A, N1‐methyladenosine], the AUC(0-t) came to 0.822 µM·h with OCT2 and MATE1/2-K [2] (baseline); 0.918 µM·h in the data set with OCT2 and MATE1/2-K [2] (cimetidine 400 mg + metformin); 0.984 µM·h in the data set on OCT2 and MATE1/2-K [2] (cimetidine 800 mg + metformin); 0.791 µM·h in the data set on OCT2 and MATE1/2-K [2] (control (metformin alone)); 1.12 µM·h in the data set on OCT2 and MATE1/2-K [2] (setting [7]); 0.977 µM·h with OCT2 and MATE1/2-K [2] (setting [8]). For the same compound, the CL renal worked out at 188 mL/min in the data set with OCT2 and MATE1/2-K [2] (baseline); 198 mL/min in the data set with OCT2 and MATE1/2-K [2] (cimetidine 400 mg + metformin); 159 mL/min with OCT2 and MATE1/2-K [2] (cimetidine 800 mg + metformin); 198 mL/min with OCT2 and MATE1/2-K [2] (control (metformin alone)). Moreover, the “clearance for tubular secretion remaining (CLr minus creatinine CLr)” value in the data set on OCT2 and MATE1/2‐K [6] is given as 29%.

For `Cc1ncc(CO)c(C(=O)O)c1O` [pyridoxic acid], the “magnitude of inhibition of CLr” value in the data set with OAT1/3 (at fifth dose of dolutegravir) is “at most 21%”. In addition, the “change in CLr” value with OAT1/3 (with cimetidine) is “no change”.
